Experimental findings from patent publication US11306117B2, “Whitening composition containing novel quercetin-based compound” (AMOREPACIFIC CORPORATION, priority 2017, dated 2022) are described below.

One test addresses mushroom tyrosinase. Description: Inhibition of tyrosinase activity. It is filed as biochemical. The settings on record: L-tyrosine, 37° C., 20 minutes, absorbance 490 nm. On the procedure:
The effect of New Materials 31 and 32 on inhibiting tyrosinase activity was evaluated.
Specifically, tyrosinase and tyrosine derived from mushroom were obtained from Sigma Chemical. Together with 150 μl of 0.1 M phosphate buffer (pH 6.5), 8 μl of mushroom tyrosinase (2,100 unit/ml) and 0.05 M concentration of L-tyrosine, arbutin and New Materials 31 and 32 were treated at the concentrations of following Table 3, respectively. The tyrosinase activity was evaluated by performing the enzyme reaction at 37° C. for 20 minutes and then measuring absorbance at 490 nm using a microplate reader (Bio-Rad 3550, Richmond, Calif., U.S.A.).

A further test deals with Mel-Ab cell line. Description: Inhibition of melanogenesis in Mel-Ab cells (method of Dooley). It is filed as cell-based, C57BL/6. The settings on record: melanin by absorbance at 400 nm after 5 days. The protocol: The effects of New Materials 31 and 32 on inhibiting melanogenesis were compared with Kojic acids which have been known to have an excellent skin whitening effect, and measured.
Specifically, the degree of melanogenesis in cells was measured by a method of Dooley. As the cell line, Mel-Ab cell line (Falcon, U.S.A.) derived from a skin pigment of C57BL/6 was used. Culturing was made under the condition of 37° C., 5% CO2 of a DMEM medium containing 10% placenta serum, 100 nM 12-O-tetradecanoylphorbol-13-acetate, and 1 nM Cholera Toxin. The test materials were treated in the manner where the cultured Mel-Ab cell was isolated with 0.25% trypsin-EDTA, and inoculated again with the same number (1×10^5 cells/well) in the 24-well plate, and then the medium was replaced with a medium containing the test materials for two days from the second day. As the test materials, 5 ppm, 10 ppm, 25 ppm and 50 ppm of New Materials 31 and 32, 25 ppm, 50 ppm and 100 ppm of Kojic acids and DMSO (control) were used. After 5 days, the test materials were treated with 1N-NaOH to dissolve melanin contained in the cell, and the amount of melanin was measured by measuring absorbance at 400 nm. The concentration (IC50) of the material necessary for reducing melanogenesis of melanocyte by half was calculated, and the results are shown in following Table 4.

As to `OC[C@H]1O[C@@H](Oc2ccc(O)cc2)[C@H](O)[C@@H](O)[C@@H]1O` [Arbutin, arbutin, reference compound], the “IC50 inhibiting tyrosinase activity” value at mushroom tyrosinase is 149 ppm.
For `O=c1cc(CO)occ1O` [Kojic acids, reference compound], the IC50 inhibiting melanogenesis in the test with Mel-Ab cell line is 39.36 ppm.
